Data from the supplement of paper PMC10307832.

How the values were obtained:
Assay in all cases: relative viability (nuclei count vs DMSO), 5 days (fraction); higher = more cells survive
ABC-1 = test system: ABC-1
Procedure, shortened: (§1)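 Nuclei were stained with Hoechst during a one-step fixation (final 0.05% Triton X-100, 1% formaldehyde, 1 ug/ml Hoechst) carried out 5 days after dosing, then counted on 4× images. The cells, lung cancer lines in 1536-well plates, had been dosed by pin tool the day after seeding with one drug alone or a fixed anchor-drug dose plus five library-drug doses (not always all listed) in √10 steps. Relative viability is the nuclei count in treated wells divided by that in vehicle wells, and each value is the median of duplicate plates.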

CAL-12T = test system: CAL-12T
Procedure, shortened: as §1

COR-L 105 = test system: COR-L 105
Procedure, shortened: as §1

ChaGo-K-1 = test system: ChaGo-K-1
Procedure, shortened: as §1

EMC-BAC-2 = test system: EMC-BAC-2
Procedure, shortened: as §1

EPLC-272H = test system: EPLC-272H
Procedure, shortened: as §1

HCC-15 = test system: HCC-15
Procedure, shortened: as §1

HCC-78 = test system: HCC-78
Procedure, shortened: as §1

HOP-62 = test system: HOP-62
Procedure, shortened: as §1

LXF-289 = test system: LXF-289
Procedure, shortened: as §1

NCI-H1666 = test system: NCI-H1666
Procedure, shortened: as §1

NCI-H1755 = test system: NCI-H1755
Procedure, shortened: as §1

NCI-H1915 = test system: NCI-H1915
Procedure, shortened: as §1

NCI-H1975 = test system: NCI-H1975
Procedure, shortened: as §1

NCI-H2023 = test system: NCI-H2023
Procedure, shortened: as §1

NCI-H2085 = test system: NCI-H2085
Procedure, shortened: as §1

NCI-H2126 = test system: NCI-H2126
Procedure, shortened: as §1

NCI-H3122 = test system: NCI-H3122
Procedure, shortened: as §1

NCI-H322M = test system: NCI-H322M
Procedure, shortened: as §1

NCI-H441 = test system: NCI-H441
Procedure, shortened: as §1

UMC-11 = test system: UMC-11
Procedure, shortened: as §1

In the case of `COc1nc(C)cnc1NS(=O)(=O)c1cccnc1-c1ccc(-c2nnco2)cc1` [Zibotentan] + CC(C)C[C@H](NC(=O)[C@H](Cc1ccccc1)NC(=O)c1cnccn1)B(O)O [Bortezomib] (partner 0.002 µM), the relative viability (ABC-1; first compound 0.08 µM) is reported as 0.348, the relative viability (ABC-1; first compound 0.253 µM) is reported as 0.289 and the relative viability (ABC-1; first compound 0.8 µM) is reported as 0.374. It also gave a relative viability (ABC-1; first compound 2.53 µM) of 0.316, a relative viability (CAL-12T; first compound 0.08 µM) of 0.941 and a relative viability (CAL-12T; first compound 0.8 µM) of 1.01. The relative viability (CAL-12T; first compound 2.53 µM) was 1.01, the relative viability (COR-L 105; first compound 0.08 µM) was 0.819 and the relative viability (COR-L 105; first compound 0.253 µM) was 0.694. For the same molecule, the relative viability (COR-L 105; first compound 0.8 µM) was 0.859, the relative viability (COR-L 105; first compound 2.53 µM) was 0.994 and the relative viability (ChaGo-K-1; first compound 0.08 µM) was 0.956. For the same molecule, the relative viability (ChaGo-K-1; first compound 0.8 µM) was 0.977, the relative viability (ChaGo-K-1; first compound 2.53 µM) was 0.99 and the relative viability (EMC-BAC-2; first compound 0.08 µM) was 1.18. It also gave a relative viability (EMC-BAC-2; first compound 0.253 µM) of 1.04, a relative viability (EMC-BAC-2; first compound 0.8 µM) of 1.07 and a relative viability (EMC-BAC-2; first compound 2.53 µM) of 1.09. It also gave a relative viability (EPLC-272H; first compound 0.08 µM) of 1.04, a relative viability (EPLC-272H; first compound 0.253 µM) of 0.906 and a relative viability (EPLC-272H; first compound 0.8 µM) of 0.843. For the same molecule, the relative viability (EPLC-272H; first compound 2.53 µM) was 0.862, the relative viability (HCC-15; first compound 0.08 µM) was 0.99 and the relative viability (HCC-15; first compound 0.253 µM) was 1.01. It also gave a relative viability (HCC-15; first compound 0.8 µM) of 0.979, a relative viability (HCC-15; first compound 2.53 µM) of 1.09 and a relative viability (HCC-78; first compound 0.08 µM) of 0.473. It also gave a relative viability (HCC-78; first compound 0.253 µM) of 0.443, a relative viability (HCC-78; first compound 0.8 µM) of 0.563 and a relative viability (HCC-78; first compound 2.53 µM) of 0.485. The relative viability (HOP-62; first compound 0.08 µM) was 0.732, the relative viability (HOP-62; first compound 0.253 µM) was 0.625 and the relative viability (HOP-62; first compound 0.8 µM) was 1.08. The relative viability (HOP-62; first compound 2.53 µM) was 0.724, the relative viability (LXF-289; first compound 0.08 µM) was 1.05 and the relative viability (LXF-289; first compound 0.253 µM) was 0.993. It also gave a relative viability (LXF-289; first compound 0.8 µM) of 1.05, a relative viability (LXF-289; first compound 2.53 µM) of 0.989 and a relative viability (NCI-H1666; first compound 0.08 µM) of 0.76. It also gave a relative viability (NCI-H1666; first compound 0.253 µM) of 0.599, a relative viability (NCI-H1666; first compound 0.8 µM) of 0.8 and a relative viability (NCI-H1666; first compound 2.53 µM) of 1. The relative viability (NCI-H1755; first compound 0.08 µM) was 0.945, the relative viability (NCI-H1755; first compound 0.253 µM) was 0.952 and the relative viability (NCI-H1755; first compound 0.8 µM) was 0.968. The relative viability (NCI-H1755; first compound 2.53 µM) was 0.97, the relative viability (NCI-H1915; first compound 0.08 µM) was 1.1 and the relative viability (NCI-H1915; first compound 0.253 µM) was 0.986. It also gave a relative viability (NCI-H1915; first compound 0.8 µM) of 1.01, a relative viability (NCI-H1915; first compound 2.53 µM) of 0.965 and a relative viability (NCI-H1975; first compound 0.08 µM) of 0.378. The relative viability (NCI-H1975; first compound 0.253 µM) was 0.293, the relative viability (NCI-H1975; first compound 0.8 µM) was 0.411 and the relative viability (NCI-H1975; first compound 2.53 µM) was 0.419. The relative viability (NCI-H2023; first compound 0.08 µM) was 1.04, the relative viability (NCI-H2023; first compound 0.253 µM) was 0.87 and the relative viability (NCI-H2023; first compound 0.8 µM) was 0.909. It also gave a relative viability (NCI-H2023; first compound 2.53 µM) of 0.966, a relative viability (NCI-H2085; first compound 0.08 µM) of 1.06 and a relative viability (NCI-H2085; first compound 0.253 µM) of 0.941. For the same molecule, the relative viability (NCI-H2085; first compound 0.8 µM) was 1.07, the relative viability (NCI-H2085; first compound 2.53 µM) was 1.14 and the relative viability (NCI-H2126; first compound 0.08 µM) was 1.19. The relative viability (NCI-H2126; first compound 0.253 µM) was 1.15, the relative viability (NCI-H2126; first compound 0.8 µM) was 1.15 and the relative viability (NCI-H2126; first compound 2.53 µM) was 1.16. For the same molecule, the relative viability (NCI-H3122; first compound 0.08 µM) was 1.02, the relative viability (NCI-H3122; first compound 0.253 µM) was 0.979 and the relative viability (NCI-H3122; first compound 0.8 µM) was 0.992. For the same molecule, the relative viability (NCI-H3122; first compound 2.53 µM) was 1.03, the relative viability (NCI-H322M; first compound 0.08 µM) was 1.05 and the relative viability (NCI-H322M; first compound 0.253 µM) was 1.22. For the same molecule, the relative viability (NCI-H322M; first compound 0.8 µM) was 1.18, the relative viability (NCI-H322M; first compound 2.53 µM) was 1.34 and the relative viability (NCI-H441; first compound 0.08 µM) was 0.846. For the same molecule, the relative viability (NCI-H441; first compound 0.8 µM) was 0.463, the relative viability (NCI-H441; first compound 2.53 µM) was 0.539 and the relative viability (UMC-11; first compound 0.08 µM) was 0.601. It also gave a relative viability (UMC-11; first compound 0.253 µM) of 0.623, a relative viability (UMC-11; first compound 0.8 µM) of 0.668 and a relative viability (UMC-11; first compound 2.53 µM) of 0.909.
